According to patent US7871631B2, “Methods of inhibiting the lowering of antihuman TNF-α antibody” (Ajinomoto Co., Inc., priority 2004, dated 2011):

Legend:
[1] = tested on: patient with small intestine/large intestine type Crohn's disease
[2] = tested on: patient with small intestine/large intestine type Crohn's disease; assay: Clinical case: repeated administration of Infliximab under enteral administration of ELENTAL, Crohn's disease activity index (CDAI) and ulcer findings; type: in vivo, human; settings: for CDAI two weeks later: ELENTAL continued
Experimental: A patient is a person, and they are the patient with small intestine/large intestine type Crohn's disease that began. By August 2002, Crohn's disease repeatedly recurred and they were hospitalized three times.
In July 2002, since Crohn's disease recurred again accompanied by stomachache, diarrhea and fever, 5 mg/kg of Infliximab (REMICADE® (trademark) 100 for drip infusion) under the enteral administration of 1200 kcal of ELENTAL® (trademark) was administered to the patient. The clinical activity index of Crohn's disease before the administration was 186 (150 or higher fall into the active stage). However, the index was lowered to 67 two weeks after the administration. During the period, an open longitudinal ulcer(s) seen in the transverse colon and sigmoid colon was cicatrized. After that, thought the patient was treated with the home enteral nutritional therapy, the symptoms recurred in February 2003 and CDAI increased up to 230. Continuing the enteral administration of ELENTAL® (trademark), Infliximab (5 mg/kg) was administered for the second time. Then, CDAI was lowered again to 63 two weeks later. […] Therefore, Infliximab (5 mg/kg) was administered for the third time, and CDAI was lowered to 80 two weeks later. Before and after the administration for the third time, it was confirmed that an open ulcer(s) of the sigmoid colon was cicatrized. Similarly, though CDAI increased in the 50th week, 68th week and 83rd week from the first administration, CDAI of 147 to 275 decreased to 50 to 80 […] by the fourth, fifth and sixth time administrations of Infliximab. During that time, administration of ELENTAL was continued.
Usually, the repeated administration of Infliximab promotes production of antibody and, therefore, its effect weakens in the repeated administration.

## Infliximab
[1]; first to sixth administration of Infliximab with ELENTAL
  tuberculosis bacterium infection: not seen
[1]; human, in vivo
  infection in organs of respiration or in a urinary tract: no finding of indication of infection
[2]; February 2003, after first Infliximab administration, under home enteral nutritional therapy, before second administration
  CDAI at recurrence of symptoms: 230
[2]; before and after the third administration of Infliximab 5 mg/kg under ELENTAL
  open ulcer(s) of the sigmoid colon: cicatrized
[2]; during the two weeks after first administration of Infliximab 5 mg/kg under ELENTAL
  open longitudinal ulcer(s) in the transverse colon and sigmoid colon: cicatrized
[2]; first administration, Infliximab 5 mg/kg drip infusion under enteral ELENTAL 1200 kcal, index before administration 186 (150 or higher = active stage)
  clinical activity index of Crohn's disease (CDAI) two weeks after the administration: 67
[2]; second administration of Infliximab 5 mg/kg, CDAI before 230
  CDAI two weeks later: 63
[2]; third administration of Infliximab 5 mg/kg, CDAI before 250
  CDAI two weeks later: 80
[2]; two months after second administration, before third administration
  CDAI increase under administration of ELENTAL: 250
